# According to PMC3534213, “γ-Secretase Modulators: Can We Combine Potency with Safety?” (International Journal of Alzheimer's Disease, 2012):
# How the values were obtained:
# plasma Aβ42 = system: plasma Aβ42; parameters: method as in earlier work; conditions: human, 400 mg dose; cited from earlier work
# CSF Aβ42 [1] = system: CSF Aβ42; parameters: method as in PMID 22072214; conditions: dog, single dose of 80 mg/kg; cited from earlier work
# [2] = parameters: method as in earlier work; conditions: high-dose group, rats; cited from earlier work
# brain Aβ42 = system: brain Aβ42; parameters: method as in PMID 22429469; conditions: 100 mg/kg oral dose; cited from earlier work
# [3] = parameters: method as in PMID 22468891; conditions: Phase III clinical trials; cited from earlier work
# [4] = cited from earlier work
# [5] = Free fraction in brain (brain tissue binding, Fub); format: in vitro ADME
# plaque load = system: plaque load; parameters: method as in PMID 21232036; conditions: chronic treatment of transgenic mice, exposure below concentrations required for Aβ42 reduction after a single dose; cited from earlier work
# [6] = Free fraction in plasma (plasma protein binding); format: in vitro ADME
# [7] = parameters: method as in PMID 22072214; conditions: repeated dosing in rat and dog; cited from earlier work
# γ-secretase = biological target: T1, γ-secretase (Homo sapiens, UniProt P49768); assay: Cellular Aβ42 lowering in SKNBE2 human neuroblastoma cells carrying hAPP 695 wild-type; format: cell-based; conditions: cellular assay, determined internally
# T1 construct: screening was carried out using SKNBE2 human neuroblastoma cells carrying the hAPP 695 wild-type; endogenous in cells; host or cells: SKNBE2 human neuroblastoma cells carrying hAPP 695 wild-type
# [8] = Dog model combining PK/PD data with early observations of liver toxicity; format: in vivo
# Method: (§1) For the cellular in vitro activity of our own compounds, screening was carried out using SKNBE2 human neuroblastoma cells carrying the hAPP 695 wild-type as described in [15]. For a description of the mouse in vivo experiments, see references; for details on the dog in vivo experiments, see [17].
# (§2) Both compounds have been tested in advanced animal models, including repeated dosing in rat and dog. […] Based on these findings, further development was halted. Since then, the dog model combining PK/PD data with early observations of liver toxicity is routinely used in our discovery program to triage compounds [17]. Both JNJ-40418677 and JNJ-42601572 contain a considerable number of conjugated aromatic rings and are characterized by high lipophilicity and molecular weight. In recent years a number of publications have appeared relating such properties with a low probability of success in clinical development. Catchy phrases like “molecular obesity” and “escape from flatland” have been used to describe the issues associated with high molecular weight and number of (hetero) aromatic rings in molecules. Based on analysis of compound properties and their attrition or success in (pre)clinical development, guidelines have been formulated and proposed which can be applied during optimization efforts in medicinal chemistry programs to strive towards more drug-like compounds. The concept of ligand efficiency (LE) is now routinely applied in the drug discovery process. It is defined as the binding energy towards a biological target per (heavy = nonhydrogen) atom in a compound. Since most assays are not directly measuring binding energy, IC50 values are often used to make a relative comparison of the LE of compounds. By working towards a high LE, molecular weight can be kept in control while optimizing pharmacological activity. […]
# CSF Aβ42 [9] = assay: as above; format: in vivo; conditions: 20 mg/kg p.o.
# Method: as §1, §2
# [10] = Limited tolerance study in rats; format: in vivo; conditions: two-week daily dose of 200 mg/kg
smiles,measurement,setting,value
COc1cc(/C=C2\CCCN([C@@H](C)c3ccc(F)cc3)C2=O)ccc1-n1cnc(C)c1 [Compound 3],maximum reduction of plasma Aβ42 levels,plasma Aβ42,~ 50%
same,gene-expression profile in liver tissue,CSF Aβ42 [1],large changes in gene-expression profile
same,liver parameters,CSF Aβ42 [1],liver parameter changes
same,lenticular opacity,[2],lenticular opacity was observed
COc1nc(C(=O)N[C@H]2COc3ccc(Cl)c(F)c32)ccc1-n1cnc(C)c1 [Compound 15],lowering of Aβ42 levels in Guinea pig brain,brain Aβ42,36%
"CC(C)[C@H](O)C(=O)N[C@@H](C)C(=O)N[C@@H]1C(=O)N(C)CCc2ccccc21 [Compound 1, semagacestat]",effect on cognition,[3],statistically significant decline in cognition
same,risk of skin cancer,[3],increased risk of skin cancer
"C[C@@H](C(=O)O)c1ccc(-c2ccccc2)c(F)c1 [Compound 2, tarenflurbil]",tolerability in clinical trials,[4]; high dosage,well tolerated
same,phase III clinical trial outcome,[4]; phase III,negative results
CC(C)C[C@H](C(=O)O)c1cc(-c2ccc(C(F)(F)F)cc2)cc(-c2ccc(C(F)(F)F)cc2)c1 [Compound 4],fraction unbound,[5],< 0.001
same,effect on plaque load,plaque load,preventive effect on plaque load
same,fraction unbound,[6],< 0.001
same,liver toxicity signs (bilirubin and ALT/AST increases),[7],early signs of liver toxicity were noted
COc1nc(-c2nc3n(n2)CCO[C@H]3c2ccccc2OC(F)(F)F)ccc1-n1cnc(C)c1 [Compound 16],fraction unbound,[5],0.039
same,IC50,γ-secretase,56 nM
same,concentration at 4 h,"[8]; CSF, 20 mg/kg oral, 4 h, read-out: CSF compound concentration",524 ± 62 nM
same,Cmax,"[8]; plasma, po, 20 mg/kg",24 ± 3 µM
same,bilirubin or ALT levels,CSF Aβ42 [9],no increases in bilirubin or ALT levels were observed
same,signs of liver toxicity,[10],did not lead to overt signs of liver toxicity
